Experimental data taken from patent publication US11510928B2, “Use of mirtazapine in the treatment of inflammatory disorders, autoimmune disease and PBC” (UTI Limited Partnership, priority 2017, dated 2022).

Assays:
PBC patients = assay: THIN database cohort study of PBC patients: decompensation, liver transplant and mortality free survival by drug usage; format: in vivo, human
Description: We conducted a cohort study using The Health Improvement Network (THIN). THIN is one of the largest medical databases in the UK^8, consisting of prospectively gathered electronic medical records from over 11.1 million patients^8. […] Data from participant general practitioners across the UK is exported to the THIN administrators and database, which is updated every 3 months^11. The THIN database records demographic data and clinical events using Read codes, prescription medications, and laboratory values^12.
We identified patients with PBC Read code “J6160” from April 1974 until May 2007. This cohort was followed until May 2012. We excluded patients having overlap syndrome with autoimmune hepatitis or primary sclerosing cholangitis. The first code of PBC identified in the THIN database was considered the index (ie. diagnosis) date. FIG. 10 provides a flow diagram illustrating the selection of the study population. The primary outcome was the first occurrence of one of the three events following the diagnosis of PBC: (1) decompensation of cirrhosis (ascites, spontaneous bacterial peritonitis, hepatic encephalopathy, hepatorenal syndrome, variceal bleeding, jaundice, or hepatocellular carcinoma); (2) liver transplantation; or (3) death.
Read codes were used to identify patients with chronic depression disorder. Chronic depression was defined as follows: (1) never diagnosed with chronic depression; (2) past depression diagnosis prior to 90 days from PBC diagnosis; and (3) current depression diagnosis if a diagnosis was made within 90 days before or after a PBC diagnosis. Using THIN database therapy files, we assessed the impact of anti-depressant medications on outcomes of PBC patients (mortality, decompensation, and liver transplant).
For each anti-depressant medication, use was defined as follows: (1) never used the medication; (2) past use as defined as a previous code for medication use prior to 90 days of PBC diagnosis; and (3) current medication user if the medication code was identified within 90 days before or after a PBC diagnosis. We assessed the effect of each anti-depressant medication on study outcomes separately. Antidepressants were classified as typical or atypical and stratified accordingly. Atypical antidepressants include: Agomelatine, Bupropion and Mirtazapine. While typical antidepressants include the following groups: (a) Selective Serotonin Reuptake Inhibitors (SSRI): Citalopram, Escitalopram, Fluoxetine, Fluvoxamine, Paroxetine and Sertraline; (b) […] (SNRI): Desvenlafaxine, Duloxetine, Minacipran and Venlafaxine; (c) Serotonin modulators: Nefazodone, Trazodone and Vilazodone; (d) Tricyclics and tetracyclics: Amitriptyline, Amoxapine, Clomipramine, Desipramine, Doxepin, Imipramine, Maprotiline, Nortriptyline and Protriptyline, Trimiprramine; (e) Monamine oxidase inhibitors: Isocarboxazid, Phenelzine, Selegiline and Tranylcypromine.
We assessed age at diagnosis of PBC, sex, and the presence of coexisting liver disease (ie. chronic hepatitis either viral, alcoholic, or fatty liver disease; yes/no). Smoking status was classified (current, former, never smoked, or unknown status) at the time of PBC diagnosis, alcohol consumption was classified (current, former, never consumed alcohol, or unknown status) at PBC diagnosis. Ursodeoxycholic acid (UDCA) usage (ever/never recorded) was also determined.
In our primary analysis, we assessed demographic, clinical, and medication variables in the PBC cohort according to depression status. Where appropriate, we used the Fisher Exact test or Chi-Square test for categorical data, and the Kruskal-Wallis or Student's t-test for continuous data. Univariate analysis using Log Rank test and multivariate Cox Proportional Regression models were used to assess the impact of depression or anti-depressant medications on PBC outcomes as defined by death, decompensated cirrhosis, or liver transplant. […]

[1] = system: hepatic macrophages (Kupffer cells), monocytes and B cells; assay: Intravital microscopy (IVM) of liver after mirtazapine treatment; format: in vivo, mouse
Description: Rationale and Relevant Preliminary Data: The normal liver macrophage pool consists of a large self-renewing, non-migratory population of KCs that are important for maintaining tissue homeostasis^1-3. KCs are situated within the sinusoidal blood flow and are an essential component of hepatic innate immunity, playing key roles in inflammation and defense^2, 4. In addition, KCs fulfill homeostatic functions important for normal liver physiology5. KCs are capable of considerable phenotypic plasticity and are highly sensitive to changes within the hepatic environment, including cytokines^2, 4, 6, 7. In response to environmental cues, KCs are activated and can be polarized along a spectrum between M1-like (induced by IFNγ, TNFα, IL-1β, IL-12, TLR4 agonists) and M2-like (induced by IL-4, IL-13, IL-10) phenotypes^2, 4, 6, 7, and can dynamically shift between these phenotypic extremes in response to changes in their microenvironment^1, 2, 4, 8. This shift is critical for regulating inflammatory and repair processes in the liver^1, 8, 9.

[2] = usage prior to PBC diagnosis vs none

CN1CCN2c3ncccc3Cc3ccccc3C2C1 (stereo not drawn) [Mirtazapine]
Protective effect against liver decompensation, transplantation, or death (PBC patients; PBC cohort): over four-fold protective effect | Requirement of liver transplant (PBC patients; PBC patients who had ever used the drug): None of the PBC patients who had ever used mirtazapine required liver transplant | Multivariate model-2 HR (include age, gender, alcohol, URSO, depression, mirtazapine) (PBC patients; current usage (after PBC diagnosis) vs none): 0.23 | Univariate HR, 10-year decompensation, liver transplant and mortality free survival (PBC patients; current usage vs none): 0.22 | Adjusted HR, mortality (PBC patients; current usage, outcome assessed separately): 0.22 | Adjusted HR, liver decompensation (PBC patients; current usage, outcome assessed separately, not significant): 0.22 | Adjusted HR, decompensated cirrhosis, liver transplant and mortality (PBC patients; sensitivity analysis: only patients using UDCA (n=793), current usage): 0.21 | Multivariate model-2 HR (include age, gender, alcohol, URSO, depression, mirtazapine) (PBC patients; [2]): 0.94 | Univariate HR, 10-year decompensation, liver transplant and mortality free survival (PBC patients; [2]): 0.84 | Interactions between hepatic B cells (CD19+) and hepatic macrophages (F4/80+) ([1]; 20 mg/kg, 3 hrs post-treatment, preliminary data): trend towards increased interactions | Kupffer cell (F4/80+) activation: retraction of cellular processes, rounding of cell shape ([1]; 1 hr after treatment (FIG. 14)): activation of KCs | Hepatic monocyte populations in CCR2RFP/+CX3CR1GFP/+ reporter mice ([1]; ~20 hrs post-treatment, pilot study): apparent increase in overall hepatic monocyte numbers coupled with the appearance of CCR2+CX3CR1+ double positive monocytes
